Laboratory results as given in a melting point compilation (Tetko et al.; mined from patent text by program, amines drawn as free bases though some values may be those of a salt).

`O=C(O)COc1ccc(C2=CC(=O)CC(c3ccccc3)C2)c(Cl)c1Cl` (configuration not stated) showed a melting point of 197 to 199 °C.
In the case of `CC(C)CC(=O)Nc1cccc(-c2ccnc3c(-c4cccs4)cnn23)c1`, the melting point is reported as 148 to 150 °C.
In the case of `CCCCN(CCCC)c1ccc(C=CC2=CC(=CC=CC3=C(C#N)C(=C(C#N)C#N)OC3(c3ccccc3)C(F)(F)F)CC(C)(C)C2)c(OC)c1` (configuration not stated), the melting point is reported as 164 to 166 °C.
Work on `CC(=O)c1cc(S(=O)(=O)N(C)C)ccc1O` yielded a melting point of 115 to 116 °C.
For `COC(=O)C12COc3cc(C(F)(F)F)ccc3C1=NN(C(=O)Nc1ccc(C(F)(F)F)cn1)C2` (configuration not stated), the melting point was 194 to 195 °C.
`Cc1nc(N)c2nc(C)n(CCOc3ccccc3)c2c1C` gave a melting point of 176 to 177 °C.
Molecule `O=[N+]([O-])c1ccc2c(ccn2-c2cccnc2)c1` has a melting point of 164 to 165 °C.
With `COc1cc2oc(=O)c(CCN3CCN(c4ccccc4OC)CC3)c(C)c2cc1OC(C)C` the melting point was 123 to 125 °C.
For `CC(O)C#CC1CCC2C3CCC4CC(O[Si](c5ccccc5)(c5ccccc5)C(C)(C)C)CCC4(C)C3CCC12C` (configuration not stated), the melting point was 68 to 70 °C.
In the case of `CCOC(=O)Nc1cc(C(=O)OC)c(O)c2ncc(Cc3ccc(F)cc3)cc12`, the melting point is reported as 205 to 206 °C.
`O=C(NC(Cc1ccc(OCc2ccccc2)cc1)C(=O)NC1C(C(=O)O)OC(n2cnc3c(NC(=O)c4ccccc4)ncnc32)C1O)OCc1ccccc1` (configuration not stated) gave a melting point of 150 to 155 °C.
With `Cn1nc(OCC(=O)c2ccc(F)cc2)c(-c2ccc(F)cc2)c1-c1ccc(S(C)(=O)=O)cc1` the melting point was 173 to 176 °C.
For `CCCOc1ccc(S(=O)(=O)N2CC[C@@H](N(C)C)C2)cc1-c1nc2cc3ncn(Cc4ccc(F)cc4)c3cc2c(=O)[nH]1`, the melting point was 223 to 225 °C.
With `CN1C(=O)C(c2c[nH]c3ccc(F)cc23)=C(c2c[nH]c3ccc(F)cc23)C1=O` the melting point was > 290 °C.
`CC1=C(/C=C/C(C)=C/C=C/C(C)=C/C(=O)O)C(C)(C)CCC1=O` gave a melting point of 184 to 187 °C.
For `N#CCc1ccc2nc(-c3ccccc3)oc2c1`, the melting point was 144 °C.
`Fc1ccc(/C=C/c2nc(COc3cccc(CCCn4ccnn4)c3)co2)cc1` showed a melting point of 105 to 106 °C.
In the case of `Cc1ccc(N(c2ccc(C)cc2)c2ccc(C(O)(CCCO)CCCO)cc2)cc1`, the melting point is reported as 131 to 132 °C.
With `COc1ccc(CBr)cc1[N+](=O)[O-]` the melting point was 110 to 112 °C.
For `N=C(N)NCCCCOc1ccc2c(c1)NC(=O)C(CCC(=O)O)C2` (configuration not stated), the melting point was 176 to 177 °C.
`CCOC(=O)c1c[nH]c2nc(N3CCN(C(=O)OCC)CC3)c(F)cc2c1=O` showed a melting point of 279 to 281 °C.
Work on `COC(=O)C(C)Oc1ccc([N+](=O)[O-])cc1` (configuration not stated) yielded a melting point of 79 to 80 °C.
`O=C(SC1CCCC1C(=O)N1CCC[C@H]1C(=O)O)c1ccccc1` (some centres not stated) showed a melting point of 68 to 70 °C.
Work on `N#Cc1ccc(-c2cc(Oc3cccc4ccc(N)nc34)ncn2)cc1` yielded a melting point of 234 to 236 °C.
In the case of `CNc1nc2ccccc2n2cnnc12`, the melting point is reported as > 300 °C.
Work on `COC(=O)c1cc(-c2ccc(S(C)(=O)=O)cc2)n(-c2ccc(F)cc2)c1` yielded a melting point of 144 to 146 °C.
For `O=C(Cl)N(OCc1ccccc1)C1c2ccccc2Oc2ccccc21`, the melting point was 117 °C.
`CC(=O)OC1CSC(Oc2cncc(-c3ccncc3Cl)c2)C(OC(C)=O)C1OC(C)=O` (configuration not stated) gave a melting point of 175 °C.
With `Cc1ccc(S(=O)(=O)OCC2COc3ccccc3O2)cc1` (configuration not stated) the melting point was 79 °C.
Molecule `CCC(C(=O)c1ccc(Cl)cc1)n1ncn(-c2ccc(N3CCN(c4nc5ccccc5s4)CC3)cc2)c1=O` (configuration not stated) has a melting point of 162 °C.
For `Cc1ccc(NC(=O)c2nc(C)cc(C#N)c2C)nc1`, the melting point was 212 °C.
For `CCOc1ccc2c(c1)n(C1CCCCC1)c(=O)n2Cc1ccc(C(=O)NC(C)(C)C)cc1OC`, the melting point was 186 °C.
`O=Cc1ccc(-c2ccccc2-c2nnn[nH]2)cc1` gave a melting point of 189 to 190 °C.
Molecule `NC(=O)c1cc(-c2ccnc(Nc3cccc(Cl)c3)n2)ccn1` has a melting point of 245 to 247 °C.
`O=C(O)CCn1nc(-c2c(-c3ccccc3)nn3ccccc23)cc1O` showed a melting point of 211 to 213 °C.
In the case of `C[C@H](CSC(=O)c1ccc(Cl)c(S(N)(=O)=O)c1)C(=O)O`, the melting point is reported as 152 to 153 °C.
Work on `O=S(=O)(NC(=S)NC1CCCCC1)c1cnccc1NC1CCCCCC1` yielded a melting point of 195 to 197 °C.
Molecule `C#Cc1cn(C2CC(O)C(CO)O2)c(=O)nc1N` (configuration not stated) has a melting point of 162 to 165 °C.
Molecule `O=C(CCC(=O)N1CCN(c2ccc(N3C[C@H](CNC(=S)C4CC4)OC3=O)cc2F)CC1)c1ccc(CN2CCOCC2)cc1` has a melting point of 173 to 174 °C.
`C1=NNSc2ccccc21` showed a melting point of 314 °C.
`O=C(CC(F)(F)F)NC[C@H]1CN(c2ccc3c(c2)CCCc2cnoc2-3)C(=O)O1` showed a melting point of 150 to 186 °C.
`CCCNC(=O)Nc1ccc2c(c1)NC(=O)C2(C)C` gave a melting point of 223 to 225 °C.
With `O=C(O)c1cc(S(=O)(=O)NCCc2ccc(Cl)cc2)ccc1Cl` the melting point was 176 to 178 °C.
For `CC1CC2=CC(=O)CCC2C2C(O)CC3(C)C(O)CCC3C12` (configuration not stated), the melting point was 163 °C.
Molecule `C[C@H](NS(=O)(=O)c1ccc2c(c1)Sc1ccccc1O2)C(=O)O` has a melting point of 75 to 85 °C.
For `CCOC(Cc1ccc(OCCN2CCOc3ccccc32)cc1)C(N)=O` (configuration not stated), the melting point was 107 to 109 °C.
With `O=C(O)c1ccccc1C(=O)NCCCCc1cccnc1` the melting point was 132 to 135 °C.
With `O=c1ccc(S(=O)(=O)n2ccnc2)n[nH]1` the melting point was 55 to 60 °C.
Molecule `Cn1cnnc1C(O)(c1ccc(Cl)cc1)c1ccc2c(c1)c(CCc1cccc(Cl)c1)cc(=O)n2C` (configuration not stated) has a melting point of 200 °C.
With `COC(=O)C1(O)CC(CO)=NN1c1ncccc1Cl` (configuration not stated) the melting point was 111 to 113 °C.
`CCCSc1sc(C(N)=O)c2c1-c1nn(C(C)=O)cc1CC2` showed a melting point of 219 to 220 °C.
Work on `COc1ccccc1NC(=O)Nc1nc(Nc2ccccc2-c2ccccc2)nc(N(CC(=O)O)Cc2ccc(OC)c(OC)c2)n1` yielded a melting point of 115 to 120 °C.
Work on `O=C(C(=O)c1cccc(Br)c1)c1ccccc1` yielded a melting point of 78 to 82 °C.
With `CC1(C)CC(=O)CC(C)(C)N1CCCCCCN1C(C)(C)CC(=O)CC1(C)C` the melting point was 151 to 152 °C.
`Cc1cc(CN(C)c2cc(-c3ccc(Cl)cc3)nn2C)cc(C)c1OC(C)(C)C(=O)O` showed a melting point of 158 °C.
For `Cn1nc(-c2ccc(OC3CCN(C4CCCC4)CC3)cc2)ccc1=O`, the melting point was 129 to 132 °C.
Molecule `CC(C)(NCCCn1ccnc1)c1ccc(-c2ccc(OCc3ccccc3)cc2)cc1` has a melting point of 93 to 95 °C.
`CN(C)CCCc1ccc(S(=O)(=O)N2CCC(Nc3nc(N)c(C(=O)c4c(F)cccc4F)s3)CC2)cc1` gave a melting point of 117 to 120 °C.
With `CN(C)c1ncc(-c2nc3cccc(CO)c3o2)cn1` the melting point was 212 to 215 °C.
`CN1CCN(c2ccc(Nc3ncc4c(n3)S/C(=C/c3ccc(C(N)=O)cc3)C(=O)N4)cc2)CC1` showed a melting point of 294 to 298 °C.
In the case of `CN1CCN(c2ccc(C(=O)CCC(=O)N3CCC(c4ccc(Cl)cc4)CC3)cc2)CC1`, the melting point is reported as 152 to 153 °C.
`N#Cc1c(Cl)cc(Cl)c(CCC(=O)O)c1Cl` showed a melting point of 127 to 129 °C.
`COc1ccc(-c2ccccn2)c(S(=O)c2nc3cc(OC)c(OC)cc3[nH]2)c1` (configuration not stated) showed a melting point of 208 to 210 °C.
`CNC(=O)C1CCNc2ccccc21` (configuration not stated) gave a melting point of 107 °C.
With `COc1ccc(C(=O)C2CCN(C3CN(C(=O)c4ccccc4)CCC3O)CC2)cc1` (configuration not stated) the melting point was 114 to 115 °C.
With `CCCCC=NNC1=NCCc2ccccc21` the melting point was 147 to 148 °C.
`CCOC(=O)C(O)=Cc1cc(CCc2ccc(F)cc2)ccn1` gave a melting point of 129 to 130 °C.
In the case of `CC(C)N(CCC1(c2ccccc2)C(=O)NCN2CCCCC21)C(C)C` (configuration not stated), the melting point is reported as 164 to 166 °C.
In the case of `Cn1c(S(C)(=O)=O)nc2ccccc21`, the melting point is reported as 131 to 132 °C.
`CC(=Cc1ccc(N(C)C)cc1Cl)[N+](=O)[O-]` showed a melting point of 93 to 94 °C.
With `COc1cc2cc(C(=O)O)cc(-c3ccnc(Cl)c3)c2cc1OC` the melting point was > 250 °C.
Molecule `CCCOc1ccc(CN2CCOCC2)cc1-c1nc2c(CCC)nn(C)c2c(=O)[nH]1` has a melting point of 106 to 107 °C.
For `CN1C(=O)C2C3C=CC(C3)C2(c2ccc(N)cc2)C1=O` (configuration not stated), the melting point was 129 to 131 °C.
In the case of `CCOC(=O)c1cn(CC)c2sc(Br)cc2c1=O`, the melting point is reported as 153 to 156 °C.
`CCn1nnc(-c2ccc(CN3CCC(C(O)(c4ccc5c(c4)OC(F)(F)O5)c4ccc5c(c4)OC(F)(F)O5)CC3)cc2)n1` gave a melting point of 79 to 81 °C.
Work on `Oc1cccc2nc(Cc3ccccc3)[nH]c12` yielded a melting point of 172 to 174 °C.
Work on `CCOC(=O)c1ccc(N2CCN(c3c(C)nc(N)nc3N)CC2)cc1` yielded a melting point of 281 to 285 °C.
Work on `O=S1(=O)N=C(NCCCCc2ccccc2)Nc2cc(Cl)sc21` yielded a melting point of 201 to 205 °C.
`Nc1ccc(C(=S)OC2CCCCC2)c(Cl)c1` showed a melting point of 97 to 100 °C.
Work on `CCOC(=O)CNc1ccc2c3c(n(CCCNC(=O)OC(C)(C)C)c(=O)c2c1)-c1ccccc1C3=O` yielded a melting point of 203 to 204 °C.
`CCCCc1nc2ccn(Cc3ccc(N)cc3)c(=O)c2n1Cc1ccc(-c2ccccc2C#N)cc1` showed a melting point of 223 °C.
Molecule `CCOC(=O)c1c(OC(C)C)nc2cc(OC)c(OC)cc2c1-c1ccc(OC)c(OC)c1` has a melting point of 142 to 143 °C.
Work on `Cc1cc(C(=O)O)ccc1C1=CC(C)(C)CC(C)(C)C1` yielded a melting point of 118 to 120 °C.
For `C[C@@H]1CN(Cc2ccc(F)cc2)CCN1C(=O)/C=C/c1ccc(Cl)cc1NC(=O)N1CCNC1=O`, the melting point was 275 to 277 °C.
Work on `Nc1ccc(C(=O)C[N+](=O)[O-])c(Cl)c1` yielded a melting point of 131 to 133 °C.
In the case of `COC(C)c1cccc2[nH]c3cnc(C(=O)OC(C)C)c(C)c3c12` (configuration not stated), the melting point is reported as 153 to 154 °C.
For `CCN(CC)C(=O)Nc1ccc(NCc2ccccc2Cl)cc1N`, the melting point was 153 to 155 °C.
`CCOC(=O)NC[C@H]1CN(c2ccc(N3CCC(n4ncnn4)CC3)c(F)c2)C(=O)O1` showed a melting point of 176 to 178 °C.
`CC(=O)OC1CC2CCC3C(CCC4(C)C3CC(N3CCN(C)CC3)C4OC(C)=O)C2(C)CC1N1CCCCC1` (configuration not stated) gave a melting point of 95 to 98 °C.
With `CCC(CC)Oc1cc([N+](=O)[O-])ccc1N` the melting point was 62 to 63 °C.
For `C=CCOc1cccc(N2C(=O)C3=C(CCCC3)C2=O)c1`, the melting point was 88 to 90 °C.
For `OCc1cc2ccccc2c(-c2ccnc(Br)c2)c1CO`, the melting point was 108 to 109 °C.
For `COC(=O)c1cc2cc(-c3ccc(OC)cc3)ccc2o1`, the melting point was 160 to 162 °C.
With `CCOc1ccc(C(=O)OC)cc1C(N)=O` the melting point was 159 to 161 °C.
In the case of `CC(=O)NCC1=C(N2CCCC2=O)c2cc([N+](=O)[O-])ccc2OC1(C)C`, the melting point is reported as 205 °C.
`Cc1cc2c(c3occ(-c4ccc(C(C)C)cc4)c13)CCC2` showed a melting point of 70 to 72 °C.
Molecule `O=C1Nc2cccnc2N(C(=O)NCCN2CCCCC2CCCCN2CCCCC2)c2ccccc21` (configuration not stated) has a melting point of 154 to 155 °C.
